# Laboratory results from patent publication US10385022B2, “3-amino-pyridines as GPBAR1 agonists” (HOFFMANN-LA ROCHE INC., priority 2011, dated 2019).
# Biological target: human GPBAR1 receptor (Homo sapiens (Human), UniProt Q8TDU6)
# Assay: functional cAMP assay in CHO-dhfr(minus) cells expressing human GPBAR1 receptors
# Assay type: cell-based
# Conditions: CHO-dhfr(minus) cells expressing human GPBAR1, 30 min at 30° C.
# Method in brief: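 Functional cAMP responses in a human GPBAR1-transfected CHO-dhfr- clone, picked using lithocholic acid as agonist, gave the EC50 values. Parallel testing in untransfected CHO cells served as a specificity control.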
# human GPBAR1 receptor, sequence (Q8TDU6 whole entry): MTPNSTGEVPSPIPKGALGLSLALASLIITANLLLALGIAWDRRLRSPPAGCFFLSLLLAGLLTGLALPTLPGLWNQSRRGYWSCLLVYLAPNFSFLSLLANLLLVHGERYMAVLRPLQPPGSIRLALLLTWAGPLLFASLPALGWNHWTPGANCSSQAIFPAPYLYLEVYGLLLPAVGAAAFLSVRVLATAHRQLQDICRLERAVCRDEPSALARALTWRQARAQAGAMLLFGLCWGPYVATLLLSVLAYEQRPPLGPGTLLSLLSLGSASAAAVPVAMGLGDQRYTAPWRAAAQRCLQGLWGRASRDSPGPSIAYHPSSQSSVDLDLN
row,EC50 [nM],SMILES
1,85,"COc1cc(F)ccc1-c1ccncc1N(C)C(=O)c1cc(C2COC2)cc(C(F)(F)F)c1 [Example 235, N-[4-(4-Fluoro-2-methoxy-phenyl)-pyridin-3-yl]-N-methyl-3-oxetan-3-yl-5-trifluoromethyl-benzamide]"
2,886,"COCCOc1cc(C(=O)N(C)c2cnccc2-c2ccc(F)cc2OC)cc(C(F)(F)F)c1 [Example 236, N-[4-(4-Fluoro-2-methoxy-phenyl)-pyridin-3-yl]-3-(2-methoxy-ethoxy)-N-methyl-5-trifluoromethyl-benzamide]"
3,340,"COc1cc(F)ccc1-c1ccncc1N(C)C(=O)c1cc(SCCN)cc(C(F)(F)F)c1 [Example 237, 3-(2-Amino-ethylsulfanyl)-N-[4-(4-fluoro-2-methoxy-phenyl)-pyridin-3-yl]-N-methyl-5-trifluoromethyl-benzamide]"
4,23,"COc1cc(F)ccc1-c1ccncc1N(C)C(=O)c1cc(Cl)cc(C2CC2)c1 [Example 238, 3-Chloro-5-cyclopropyl-N-[4-(4-fluoro-2-methoxy-phenyl)-pyridin-3-yl]-N-methyl-benzamide]"
5,508,"COc1cc(F)ccc1-c1ccncc1N(C)C(=O)c1cc(SCCCC(=O)O)cc(C(F)(F)F)c1 [Example 239, 4-(3-{[4-(4-Fluoro-2-methoxy-phenyl)-pyridin-3-yl]-methyl-carbamoyl}-5-trifluoromethyl-phenylsulfanyl)-butyric acid]"
6,1150,"COc1cc(F)ccc1-c1ccncc1N(C)C(=O)c1cc(OCCO)cc(C(F)(F)F)c1 [Example 240, N-[4-(4-Fluoro-2-methoxy-phenyl)-pyridin-3-yl]-3-(2-hydroxy-ethoxy)-N-methyl-5-trifluoromethyl-benzamide]"
7,105,"COc1cc(F)ccc1-c1ccncc1N(C)C(=O)c1cc(C(F)(F)F)cc(S(=O)(=O)CCN)c1 [Example 241, 3-(2-Amino-ethanesulfonyl)-N-[4-(4-fluoro-2-methoxy-phenyl)-pyridin-3-yl]-N-methyl-5-trifluoromethyl-benzamide]"
8,11,"CN(C(=O)c1cc(C(F)(F)F)cc(S(C)(=O)=O)c1)c1cnccc1-c1ccccc1OC1CC1 [Example 242, N-[4-(2-Cyclopropoxy-phenyl)-pyridin-3-yl]-3-methanesulfonyl-N-methyl-5-trifluoromethyl-benzamide]"
9,610,"COc1cc(F)ccc1-c1ccncc1N(C)C(=O)c1cc(SCCCCC(=O)O)cc(C(F)(F)F)c1 [Example 243, 5-(3-{[4-(4-Fluoro-2-methoxy-phenyl)-pyridin-3-yl]-methyl-carbamoyl}-5-trifluoromethyl-phenylsulfanyl)-pentanoic acid]"
10,1150,"CS(=O)(=O)c1cc(C(=O)N(CCO)c2cnccc2-c2ccccc2F)cc(C(F)(F)F)c1 [Example 244, N-[4-(2-Fluoro-phenyl)-pyridin-3-yl]-N-(2-hydroxy-ethyl)-3-methanesulfonyl-5-trifluoromethyl-benzamide]"
11,933,"COc1cc(F)ccc1-c1ccncc1N(C)C(=O)c1cc(C2CN(C(=O)OC(C)(C)C)C2)cc(C(F)(F)F)c1 [Example 245, 3-(3-{[4-(4-Fluoro-2-methoxy-phenyl)-pyridin-3-yl]-methyl-carbamoyl}-5-trifluoromethyl-phenyl)-azetidine-1-carboxylic acid tert-butyl ester]"
12,168,"COc1cc(F)ccc1-c1ccncc1N(C)C(=O)c1cc(Br)cc(OC(F)(F)F)c1 [Example 246, 3-Bromo-N-[4-(4-fluoro-2-methoxy-phenyl)-pyridin-3-yl]-N-methyl-5-trifluoromethoxy-benzamide]"
13,413,"COc1cc(F)ccc1-c1ccncc1N(C)C(=O)c1cc(C(F)(F)F)cc(S(=O)(=O)CCCC(=O)O)c1 [Example 247, 4-(3-{[4-(4-Fluoro-2-methoxy-phenyl)-pyridin-3-yl]-methyl-carbamoyl}-5-trifluoromethyl-benzenesulfonyl)-butyric acid]"
